The target of one series is T1, P-Rex1 DHPH domain (Homo sapiens, UniProt Q8TCU6).
T1 construct: 100 nM EE-P-Rex1 DHPH domains (PREX-in1, compounds 2–10 and 30–128); made in house; host or cells: Sf9 cells (baculovirus)
Nature of the series: Mant-GTP GEF activity assay. The class given is biochemical. The procedure: The mant-GTP GEF activity assay measures the binding of fluorescent 2’/3’-O-(N-Methyl-anthraniloyl)-guanosine-5’-triphosphate (mant)-GTP to Rac, making use of the spectroscopic differences between bound and free mant-GTP. P-Rex1 DHPH domain protein was diluted to 375 nM in exchange buffer (20 mM Tris, pH 7.5 RT, 50 mM NaCl, 200 mM KCl, 4 mM MgCl2, 50 μg/ml fatty-acid-free BSA). The inhibitors PREX-in1 or EHop-016 were diluted to various concentrations in exchange buffer containing 15% DMSO. 4.4 µl P-Rex1 DHPH domain protein were incubated with 1.1 µl PREX-in1 or EHop-016 for 30 min at 30°C, or were mock treated with 1.1 µl vehicle (15% DMSO). 5 μl of the P-Rex1 DHPH / inhibitor mix was then added to 10 µl of a 1.5x reaction mix containing 225 nM bacteria-derived EE-Rac1, 7.5 µM mant-GTP and 15 µM GTP in exchange buffer in a 96-well plate. Final assay concentrations were 150 nM EE-Rac1, 100 nM P-Rex1 DHPH domain, 5 μM mant-GTP, 10 µM GTP, […] fatty-acid-free BSA, 1% DMSO, and the indicated concentrations of inhibitor. Mant-GTP fluorescence was measured in real time in a PHERAstar 384-well fluorescence plate reader at 25°C for 40 min using 360 nm excitation and 440 nm emission.

The next series concerns HEK-293 cells. In words: Cell cycle stages by propidium iodide flow cytometry. The class given is cell-based. As for the experimental part:
Human embryonic kidney 293 (HEK-293) cells were grown at 37°C in a humidified 5% CO2 atmosphere in Dulbecco’s modified Eagle medium (DMEM, Gibco) supplemented with 10% foetal bovine serum (FBS), 100 units/ml penicillin and 100 µg/ml streptomycin. Cells were passaged by tryptic digest 1:4 approximately every 2 days. To measure cell cycle stages, 2 ml HEK293 cells were plated per well of a 6-well dish (Thermo Scientific, Nunc) at 10^5 cells/ml. After 24 h, the medium was replaced with fresh medium containing various concentrations of PREX-in1, as indicated, or 10 μM NSC23766, or vehicle control (0.1% DMSO), and cells were incubated for a further 24 h. The medium was removed but kept aside to recover any detached cells. Wells were washed with PBS, and cells recovered by trypsinization. Cell suspensions were pooled with the culture supernatant and centrifuged at 433 × g for 5 min at RT. Cells were washed in PBS, resuspended in ice-cold 70% ethanol/PBS, and incubated for 30 min at 4°C for fixation and permeabilization. Cells were washed once more in PBS, then stained with 50 µg/ml propidium iodide in PBS containing 100 µg/ml RNase for 30 min at 37°C. Cells were analysed by flow cytometry for the intensity of propidium iodide staining using a FACSCalibur flow cytometer. 10,000 cells were analysed per sample. Data analysis was done using FloJo software.
Background: Flow cytometry measures light scatter and fluorescence of single cells or particles in a stream.

Series [1] has as its system PAE cells expressing eGFP-P-Rex1. Nature of the series: PAE cell morphology after PDGF stimulation. The class given is cell-based, pig. The conditions noted are these: 1 µM for 15 min. As for the experimental part:
Pig aortic endothelial (PAE) cells, which stably overexpress PDGF receptor beta, were grown at 37°C in a humidified 5% CO2 atmosphere in Ham’s F-12 medium with L-glutamine (PAA) supplemented with 10% FBS, 100 units/ml penicillin and 100 µg/ml streptomycin (complete medium). Cells were passaged by tryptic digest 1:4 approximately every 2 days. PAE cells were transfected with eGFP-P-Rex1 by electroporation as described, resuspended in complete medium without antibiotics and plated onto sterile 22 mm glass coverslips in 6-well plates. After 12 h, cells were washed twice in Ham’s F-12 and serum starved in Ham’s F-12 containing 1% fatty acid-free BSA) for 8 h. PREX-in1 was added to the medium to a concentration of 1 µM, or cells were mock-treated with vehicle control (0.05% DMSO), for 15 min at 37°C. Cells were stimulated with 10 ng/ml PDGF for 10 min, or were mock-stimulated, and then fixed in 4% paraformaldehyde, 50 mM Pipes pH 6.8, 1 mM EGTA, 1 mM MgCl2 for 15 min at RT. Cells were washed in PBS, permeabilized for 10 min in PBS containing 0.2% Triton X-100, washed twice in PBS and once in PBS, 0.1% BSA. The F-actin cytoskeleton was stained by incubating samples with TRITC-Phalloidin (Sigma P1951) in PBS, 0.1% BSA for 45 min at RT in the dark. Coverslips were washed twice in PBS, rinsed once in water, and mounted onto slides using Aqua Polymount (Polysciences, Inc.). Samples were imaged using an AxioImager D2 fluorescence microscope (Zeiss, ×200 magnification), taking 15–20 representative images for each duplicate coverslip. Images were analysed blinded to experimental design using ImageJ, for both manual and automated analysis. Using manual analysis, each cell was assigned to a morphology category (basal, with lamellipodia and membrane ruffles, spread with ruffles). With automated analysis, the surface area and circularity of all cells were quantified using the ‘Set Measurements’ analysis tools of ImageJ after assigning a mask to each cell. To determine the proportion of spread cells, cells with a surface area more than 50% larger than the mean under basal conditions (1246 μm^2) were considered spread. eGFP-P-Rex1 expressing cells were compared to non-green fluorescent cells on the same coverslip.

T1 sequence (Q8TCU6 49-392 limits assumed): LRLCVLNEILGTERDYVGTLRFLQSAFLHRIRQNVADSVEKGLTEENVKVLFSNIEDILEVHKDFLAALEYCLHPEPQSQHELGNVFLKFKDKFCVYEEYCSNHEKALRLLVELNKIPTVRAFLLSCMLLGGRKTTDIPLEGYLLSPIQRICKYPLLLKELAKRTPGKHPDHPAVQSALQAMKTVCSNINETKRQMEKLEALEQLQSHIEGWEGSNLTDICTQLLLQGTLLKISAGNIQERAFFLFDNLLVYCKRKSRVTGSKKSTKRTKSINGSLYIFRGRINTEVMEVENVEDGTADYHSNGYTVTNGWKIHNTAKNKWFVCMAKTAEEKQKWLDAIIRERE

Regarding `COc1ccc(-c2[nH]nc3c2C(c2ccc(-c4ccc(Cl)cc4)o2)C(C#N)=C(N)O3)cc1` (centres unmarked) [PREX-in1, 6-amino-4-[5-(4-chlorophenyl)-2-furyl]-3-(4-methoxyphenyl)-2,4-dihydropyrano[2,3-c]pyrazole-5-carbonitrile], the IC50 (as a rule, the point on the concentration scale where inhibition reaches its midpoint) at P-Rex1 DHPH domain (150 nM EE-Rac1, 100 nM P-Rex1 DHPH, read-out: IC50 of inhibition of P-Rex1 DHPH in mant-GTP assay) is roughly 10 µM. Further, at P-Rex1 DHPH domain (10 µM), the “effect on P-Rex1 DHPH-dependent mant-GTP loading of Rac1” value was “inhibited”. In the series with HEK-293 cells (1 µM), the cytotoxic effects entry is “did not observe cytotoxic effects”. Also, the “cell death (sub-G1 phase)” value in the series with HEK-293 cells (24 h treatment, 10 µM) is listed as “promotes cell death”. Further, the “morphology of mock-transfected cells” value in series [1] is “did not affect the morphology”. For the same molecule, the “P-Rex1 dependent spreading of PDGF-stimulated cells” value in series [1] (10 ng/ml PDGF) is listed as “did inhibit”. For the same molecule, the cell circularity result in series [1] (automated analysis) is on record as “lack of effect”. Also, the “proportion of cells with lamellipodia or membrane ruffles” value in series [1] (manual analysis) was “did not affect the proportion of cells with lamellipodia or membrane ruffles”.

The values are drawn from publication PMC9645260, “Small-molecule inhibitors of P-Rex guanine-nucleotide exchange factors” (Small GTPases, 2022).
